What was measured:
Test in all cases: relative viability (nuclei count vs DMSO), 5 days (fraction); higher = more cells survive
Wnt-C59 + Palbociclib = compound: CC1=NC=CC(=C1)C2=CC=C(C=C2)CC(=O)NC3=CC=C(C=C3)C4=CN=CC=C4 [Wnt-C59] + CC(=O)c1c(C)c2cnc(Nc3ccc(N4CCNCC4)cn3)nc2n(C2CCCC2)c1=O [Palbociclib] (partner 0.5 µM)
Procedure, shortened: (§1)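 After 5 days of treatment, lung cancer cells in 1536-well plates were fixed and stained in a single step (final 0.05% Triton X-100, 1% formaldehyde, 1 ug/ml Hoechst) and their nuclei counted on 4× images. Treatment had been applied by pin tool the day after seeding as one drug alone or as a fixed anchor-drug dose with five library-drug doses (not always all listed) in √10 steps. Relative viability is the nuclei count of treated wells divided by that of vehicle wells, and values are medians of duplicate plates.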

Wnt-C59 + Bortezomib = compound: CC1=NC=CC(=C1)C2=CC=C(C=C2)CC(=O)NC3=CC=C(C=C3)C4=CN=CC=C4 [Wnt-C59] + CC(C)C[C@H](NC(=O)[C@H](Cc1ccccc1)NC(=O)c1cnccn1)B(O)O [Bortezomib] (partner 0.002 µM)
Procedure, shortened: as §1

Wnt-C59 + Luminespib = compound: CC1=NC=CC(=C1)C2=CC=C(C=C2)CC(=O)NC3=CC=C(C=C3)C4=CN=CC=C4 [Wnt-C59] + CCNC(=O)c1noc(-c2cc(C(C)C)c(O)cc2O)c1-c1ccc(CN2CCOCC2)cc1 [Luminespib] (partner 0.01 µM)
Procedure, shortened: as §1

Wnt-C59 + Tozasertib = compound: CC1=NC=CC(=C1)C2=CC=C(C=C2)CC(=O)NC3=CC=C(C=C3)C4=CN=CC=C4 [Wnt-C59] + Cc1cc(Nc2cc(N3CCN(C)CC3)nc(Sc3ccc(NC(=O)C4CC4)cc3)n2)n[nH]1 [Tozasertib] (partner 0.1 µM)
Procedure, shortened: as §1

Wnt-C59 + Phenformin = compound: CC1=NC=CC(=C1)C2=CC=C(C=C2)CC(=O)NC3=CC=C(C=C3)C4=CN=CC=C4 [Wnt-C59] + N=C(N)NC(=N)NCCc1ccccc1 [Phenformin] (partner 250 µM)
Procedure, shortened: as §1

Row | Cell Line | relative viability (Wnt-C59 + Palbociclib; first compound 0.001 µM) | relative viability (Wnt-C59 + Palbociclib; first compound 0.01 µM) | relative viability (Wnt-C59 + Palbociclib; first compound 0.03162 µM) | relative viability (Wnt-C59 + Palbociclib; first compound 0.1 µM) | relative viability (Wnt-C59 + Bortezomib; first compound 0.001 µM) | relative viability (Wnt-C59 + Bortezomib; first compound 0.01 µM) | relative viability (Wnt-C59 + Bortezomib; first compound 0.03162 µM) | relative viability (Wnt-C59 + Bortezomib; first compound 0.1 µM) | relative viability (Wnt-C59 + Luminespib; first compound 0.001 µM) | relative viability (Wnt-C59 + Luminespib; first compound 0.01 µM) | relative viability (Wnt-C59 + Luminespib; first compound 0.03162 µM) | relative viability (Wnt-C59 + Luminespib; first compound 0.1 µM) | relative viability (Wnt-C59 + Tozasertib; first compound 0.001 µM) | relative viability (Wnt-C59 + Tozasertib; first compound 0.01 µM) | relative viability (Wnt-C59 + Tozasertib; first compound 0.03162 µM) | relative viability (Wnt-C59 + Tozasertib; first compound 0.1 µM) | relative viability (Wnt-C59 + Phenformin; first compound 0.001 µM) | relative viability (Wnt-C59 + Phenformin; first compound 0.01 µM) | relative viability (Wnt-C59 + Phenformin; first compound 0.03162 µM) | relative viability (Wnt-C59 + Phenformin; first compound 0.1 µM)
1 | NCI-H647 | 0.346 | 0.326 | 0.388 | 0.316 | 1.06 | 1.02 | 0.842 | 1.06 | 0.145 | 0.175 | 0.149 | 0.166 | 0.448 | 0.27 | 0.167 | 0.179 | 0.479 | 0.453 | 0.578 | 0.481
2 | NCI-H3122 | 0.183 | 0.201 | 0.22 | 0.186 | 0.998 | 0.972 | 1.04 | 0.958 | 0.0968 | 0.0872 | 0.0839 | 0.0884 | 0.409 | 0.386 | 0.401 | 0.377 | 0.369 | 0.366 | 0.36 | 0.362
3 | A549 |  |  |  |  |  |  |  |  |  |  |  |  |  |  |  |  | 0.213 | 0.144 | 0.253 | 0.169
4 | NCI-H1299 |  |  |  |  | 1.02 | 1.06 | 1.02 | 1.01 |  |  |  |  |  |  |  |  |  |  |  | 
5 | HCC-44 | 0.982 | 0.977 | 1.04 | 1 | 0.948 | 0.886 | 0.903 | 0.887 | 1.18 | 1.2 | 0.897 | 0.997 | 1.12 | 0.909 | 0.976 | 0.864 | 0.315 | 0.201 | 0.153 | 0.23
6 | NCI-H2342 | 0.491 | 0.488 | 0.55 | 0.504 |  |  |  |  | 0.692 | 0.658 | 0.806 | 0.809 | 0.643 | 0.416 | 0.53 | 0.624 | 0.616 | 0.63 | 0.756 | 0.746
7 | NCI-H522 | 0.912 | 1.04 | 1.15 | 0.892 |  |  |  |  | 1.63 | 1.2 | 0.979 | 1.13 | 0.63 | 0.566 | 0.578 | 0.651 | 0.614 | 0.599 | 0.601 | 0.64
8 | SW 900 | 0.48 | 0.461 | 0.608 | 0.54 |  |  |  |  | 0.159 | 0.179 | 0.172 | 0.197 | 0.538 | 0.502 | 0.557 | 0.589 | 0.633 | 0.607 | 0.555 | 0.574
9 | HCC-366 | 0.461 | 0.376 | 0.402 | 0.386 | 1.06 | 0.98 | 1.16 | 1.07 |  |  |  |  | 0.156 | 0.102 | 0.111 | 0.124 | 0.614 | 0.605 | 0.668 | 0.528
10 | NCI-H1944 | 0.343 | 0.328 | 0.334 | 0.339 |  |  |  |  | 0.802 | 0.758 | 0.769 | 0.652 | 0.237 | 0.261 | 0.263 | 0.246 | 0.197 | 0.188 | 0.19 | 0.197
11 | IA-LM |  |  |  |  | 0.942 | 0.713 | 0.91 | 0.724 |  |  |  |  |  |  |  |  |  |  |  | 
12 | NCI-H2170 | 0.393 | 0.397 | 0.416 | 0.367 |  |  |  |  | 0.583 | 0.722 | 0.758 | 0.655 | 0.721 | 0.641 | 0.852 | 0.602 | 0.436 | 0.395 | 0.405 | 0.443
13 | NCI-H1648 | 0.288 | 0.241 | 0.259 | 0.23 |  |  |  |  |  |  |  |  | 0.581 | 0.611 | 0.364 | 0.524 |  |  |  | 
14 | LK-2 | 0.524 | 0.739 | 0.705 | 0.535 |  |  |  |  | 0.199 | 0.159 | 0.174 | 0.213 | 0.165 | 0.173 | 0.189 | 0.18 | 0.479 | 0.379 | 0.481 | 0.321
15 | NCI-H358 | 0.134 | 0.128 | 0.153 | 0.1 |  |  |  |  | 0.315 | 0.341 | 0.291 | 0.475 | 0.108 | 0.0976 | 0.108 | 0.0887 | 0.343 | 0.257 | 0.431 | 0.337
16 | SK-MES-1 | 0.29 | 0.321 | 0.316 | 0.339 |  |  |  |  | 0.88 | 0.792 | 0.78 | 0.739 | 0.94 | 0.913 | 0.944 | 0.824 | 0.673 | 0.69 | 0.694 | 0.695
17 | NCI-H1793 | 0.296 | 0.259 | 0.355 | 0.321 |  |  |  |  | 0.176 |  | 0.204 | 0.201 | 0.309 |  | 0.302 | 0.345 | 0.34 |  | 0.397 | 0.362
18 | NCI-H1792 | 0.673 | 0.655 | 0.672 | 0.656 | 0.959 | 0.963 | 1.04 | 0.946 | 0.515 | 0.388 |  | 0.656 |  |  |  |  | 0.363 | 0.301 |  | 0.22
19 | HCC-78 | 0.476 | 0.488 | 0.494 | 0.455 | 0.571 | 0.515 | 0.609 | 0.422 |  |  |  |  | 0.492 | 0.404 | 0.504 | 0.441 | 0.548 | 0.685 | 0.701 | 0.72
20 | NCI-H1395 | 0.598 | 0.652 | 0.566 | 0.573 |  |  |  |  | 0.702 | 0.589 | 0.762 | 0.773 | 0.71 | 0.668 | 0.755 | 0.844 | 0.442 | 0.423 | 0.495 | 0.429
21 | EBC-1 |  |  |  |  | 0.638 | 0.617 | 0.394 | 0.591 |  |  |  |  |  |  |  |  |  |  |  | 
22 | NCI-H596 |  |  |  |  | 0.837 | 1.08 | 1.12 |  | 1.14 | 1.08 | 1.06 | 1.06 | 0.943 | 0.778 | 0.882 | 0.905 | 0.746 | 0.71 | 0.923 | 0.722
